Results from patent publication US9845310B2 (priority 2015, dated 2017).

The compounds below were run against APJ (Homo sapiens (Human), UniProt P35414) (assay: [35S]GTPγS binding assay on membranes from CHO cells stably expressing human APJ receptor). Settings: Activity hAPJ SPA EC50 IP (μM).
Format: biochemical
Method: A GTPγS binding assay was performed on membranes prepared from CHO cells stably expressing human APJ receptor. The optimum experimental conditions for the concentrations of GDP, MgCl2, and NaCl in the assay buffer were initially determined. The assay was performed in assay buffer [20 mM HEPES, pH 7.5, 5 mM MgCl2, and 0.1% (w/v) BSA with 200 mM NaCl, 3 M GDP] and membranes expressing human APJ receptor/well along with WGA PS beads. The reaction was initiated by addition of 0.2 nM [^35S]GTPγS (Perkin Elmer Life and Analytical Sciences, Waltham USA) in the absence or presence of various ligands and incubated at RT for 90 min. Nonspecific binding was determined in the presence of 100 M GTPγS and was always less than 0.2% of total binding.

Sequence of APJ (P35414 whole entry): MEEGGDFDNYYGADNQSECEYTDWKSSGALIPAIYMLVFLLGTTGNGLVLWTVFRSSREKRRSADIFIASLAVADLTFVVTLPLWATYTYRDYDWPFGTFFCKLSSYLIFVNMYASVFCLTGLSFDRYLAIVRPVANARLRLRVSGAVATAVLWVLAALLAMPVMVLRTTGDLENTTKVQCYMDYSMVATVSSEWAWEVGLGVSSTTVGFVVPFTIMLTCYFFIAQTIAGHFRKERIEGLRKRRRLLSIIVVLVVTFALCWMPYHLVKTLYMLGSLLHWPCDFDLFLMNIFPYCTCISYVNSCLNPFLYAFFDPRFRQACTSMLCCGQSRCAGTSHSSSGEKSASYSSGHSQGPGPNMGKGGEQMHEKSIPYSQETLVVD

SMILES | EC50
COc1cccc(-c2nnc(NS(=O)(=O)[C@H](C)[C@@H](O)c3cc(C)n(C)n3)n2-c2c(OC)cccc2OC)n1 (racemic) [Example 260.0, (1S,2R)-N-(4-(2,6-dimethoxyphenyl)-5-(6-methoxypyridin-2-yl)-4H-1,2,4-triazol-3-yl)-1-(1,5-dimethyl-1H-pyrazol-3-yl)-1-hydroxypropane-2-sulfonamide and (1R,2S)-N-(4-(2,6-dimethoxyphenyl)-5-(6-methoxypyridin-2-yl)-4H-1,2,4-triazol-3-yl)-1-(1,5-dimethyl-1H-pyrazol-3-yl)-1-hydroxypropane-2-sulfonamide] | 0.0024 µM
COc1cccc(-c2nnc(NS(=O)(=O)[C@@H](C)[C@H](C)c3ncc(F)cn3)n2-c2cn(C)c3ccccc23)n1 (racemic) [Example 451.0, (2S,3R)-3-(5-fluoro-2-pyrimidinyl)-N-(5-(6-methoxy-2-pyridinyl)-4-(1-methyl-1H-indol-3-yl)-4H-1,2,4-triazol-3-yl)-2-butanesulfonamide and (2R,3S)-3-(5-fluoro-2-pyrimidinyl)-N-(5-(6-methoxy-2-pyridinyl)-4-(1-methyl-1H-indol-3-yl)-4H-1,2,4-triazol-3-yl)-2-butanesulfonamide] | 0.045 µM
CC#C[C@@H](O)[C@H](C)S(=O)(=O)Nc1nnc(-c2cncc(C)c2)n1-c1c(OC)cccc1OC (racemic) [Example 764.0, (2R,3S)-N-(4-(2,6-dimethoxyphenyl)-5-(5-methyl-3-pyridinyl)-4H-1,2,4-triazol-3-yl)-3-hydroxy-4-hexyne-2-sulfonamide and (2S,3R)-N-(4-(2,6-dimethoxyphenyl)-5-(5-methyl-3-pyridinyl)-4H-1,2,4-triazol-3-yl)-3-hydroxy-4-hexyne-2-sulfonamide] | 0.027 µM
COc1cccc(-c2nnc(NS(=O)(=O)[C@@H](C)[C@H](OC(C)C)c3ncc(C)cn3)n2-c2c(OC)cccc2OC)n1 (single isomer, unassigned) [Example 96.0] | 0.00026 µM
COc1cccc(-c2nnc(NS(=O)(=O)[C@H](C)[C@@H](OC(C)C)c3ncc(C)cn3)n2-c2c(OC)cccc2OC)n1 (single isomer, unassigned) [Example 97.0] | 0.002 µM
COc1cccc(-c2nnc(NS(=O)(=O)[C@H](C)[C@H](OC(C)C)c3ncc(C)cn3)n2-c2c(OC)cccc2OC)n1 (single isomer, unassigned) [Example 98.0] | 0.0099 µM
COc1cccc(OC)c1-n1c(NS(=O)(=O)[C@@H](C)[C@H](C)c2ncc(F)cn2)nnc1-c1cccnc1 (single isomer, unassigned) [Example 183.0, (2R,3S)-N-(4-(2,6-dimethoxyphenyl)-5-(3-pyridinyl)-4H-1,2,4-triazol-3-yl)-3-(5-fluoro-2-pyrimidinyl)-2-butanesulfonamide or (2S,3R)-N-(4-(2,6-dimethoxyphenyl)-5-(3-pyridinyl)-4H-1,2,4-triazol-3-yl)-3-(5-fluoro-2-pyrimidinyl)-2-butanesulfonamide] | 0.06 µM
COc1cnc([C@@H](OC)[C@H](C)S(=O)(=O)Nc2nnc(-c3cncc(C)c3)n2-c2c(OC)cccc2OC)cn1 (single isomer, unassigned) [Example 310.0] | 0.00066 µM
COc1cccc(OC)c1-n1c(NS(=O)(=O)[C@@H](C)Cc2ncc(F)cn2)nnc1-c1cccc(C)n1 (single isomer, unassigned) [Example 619.0, (S)-N-(4-(2,6-dimethoxyphenyl)-5-(6-methylpyridin-2-yl)-4H-1,2,4-triazol-3-yl)-1-(5-fluoropyrimidin-2-yl)propane-2-sulfonamide or (R)-N-(4-(2,6-dimethoxyphenyl)-5-(6-methylpyridin-2-yl)-4H-1,2,4-triazol-3-yl)-1-(5-fluoropyrimidin-2-yl)propane-2-sulfonamide] | 0.0015 µM
COc1ccnc(OC)c1-n1c(NS(=O)(=O)[C@@H](C)[C@H](OC)c2ccc(Cl)cn2)nnc1-c1cccnc1 (single isomer, unassigned) [Example 715.0, (1R,2S,P)-1-(5-chloro-2-pyridinyl)-N-(4-(2,4-dimethoxy-3-pyridinyl)-5-(3-pyridinyl)-4H-1,2,4-triazol-3-yl)-1-methoxy-2-propanesulfonamide or (1R,2S,M)-1-(5-chloro-2-pyridinyl)-N-(4-(2,4-dimethoxy-3-pyridinyl)-5-(3-pyridinyl)-4H-1,2,4-triazol-3-yl)-1-methoxy-2-propanesulfonamide] | 0.00031 µM
COc1cccc(-c2nnc(NS(=O)(=O)[C@@H](C)[C@H](OC)c3ncc(C)cn3)n2-c2c(OC)ccnc2OC)n1 (single isomer, unassigned) [Example 771.0] | 0.002 µM

Same assay, conditions: read-out: Activity hAPJ SPA EC50 IP

SMILES | EC50
COc1cccc(OC)c1-n1c(NS(=O)(=O)[C@@H](C)[C@H](O)c2ccc(C#N)cc2)nnc1-c1cncc(C)c1 (single isomer, unassigned) [Example 249.0, (1R,2S)-1-(4-cyanophenyl)-N-(4-(2,6-dimethoxyphenyl)-5-(5-methyl-3-pyridinyl)-4H-1,2,4-triazol-3-yl)-1-hydroxy-2-propanesulfonamide or (1S,2R)-1-(4-cyanophenyl)-N-(4-(2,6-dimethoxyphenyl)-5-(5-methyl-3-pyridinyl)-4H-1,2,4-triazol-3-yl)-1-hydroxy-2-propanesulfonamide] | 0.0011 µM
CCO[C@@H](c1cnc(C)cn1)[C@@H](C)S(=O)(=O)Nc1nnc(-c2cccc(OC)n2)n1-c1c(OC)cccc1OC (single isomer, unassigned) [Example 588.0, (1S,2R)-N-(4-(2,6-dimethoxyphenyl)-5-(6-methoxy-2-pyridinyl)-4H-1,2,4-triazol-3-yl)-1-ethoxy-1-(5-methyl-2-pyrazinyl)-2-propanesulfonamide or (1R,2S)-N-(4-(2,6-dimethoxyphenyl)-5-(6-methoxy-2-pyridinyl)-4H-1,2,4-triazol-3-yl)-1-ethoxy-1-(5-methyl-2-pyrazinyl)-2-propanesulfonamide] | 0.00052 µM
CCO[C@@H](c1cnc(C)cn1)[C@@H](C)S(=O)(=O)Nc1nnc(-c2cccc(OC)n2)n1-c1c(OC)cccc1OC (single isomer, unassigned) [Example 589.0, (1S,2R)-N-(4-(2,6-dimethoxyphenyl)-5-(6-methoxy-2-pyridinyl)-4H-1,2,4-triazol-3-yl)-1-ethoxy-1-(5-methyl-2-pyrazinyl)-2-propanesulfonamide or (1R,2S)-N-(4-(2,6-dimethoxyphenyl)-5-(6-methoxy-2-pyridinyl)-4H-1,2,4-triazol-3-yl)-1-ethoxy-1-(5-methyl-2-pyrazinyl)-2-propanesulfonamide] | 0.02 µM
COc1cccc(OC)c1-n1c(NS(=O)(=O)[C@@H](C)[C@H](OC)c2ncc(C)o2)nnc1-c1cncc(C)c1 (single isomer, unassigned) [Example 632.0, (1S,2R)-N-(4-(2,6-dimethoxyphenyl)-5-(5-methylpyridin-3-yl)-4H-1,2,4-triazol-3-yl)-1-methoxy-1-(5-methyloxazol-2-yl)propane-2-sulfonamide or (1R,2S)-N-(4-(2,6-dimethoxyphenyl)-5-(5-methylpyridin-3-yl)-4H-1,2,4-triazol-3-yl)-1-methoxy-1-(5-methyloxazol-2-yl)propane-2-sulfonamide] | 0.21 µM
COc1cccc(OC)c1-n1c(NS(=O)(=O)[C@@H](C)[C@H](OC)c2ncc(C)o2)nnc1-c1cncc(C)c1 (single isomer, unassigned) [Example 633.0, (1S,2R)-N-(4-(2,6-dimethoxyphenyl)-5-(5-methylpyridin-3-yl)-4H-1,2,4-triazol-3-yl)-1-methoxy-1-(5-methyloxazol-2-yl)propane-2-sulfonamide or (1R,2S)-N-(4-(2,6-dimethoxyphenyl)-5-(5-methylpyridin-3-yl)-4H-1,2,4-triazol-3-yl)-1-methoxy-1-(5-methyloxazol-2-yl)propane-2-sulfonamide] | 0.0069 µM
COc1cccc(OC)c1-n1c(NS(=O)(=O)[C@@H](C)[C@H](C)c2ncc(F)c([C@@H]3COCCO3)n2)nnc1-c1cccc(OCC(O)(C(F)(F)F)C(F)(F)F)n1 (single isomer, unassigned) [Example 639.0] | 0.16 µM
COc1cccc(OC)c1-n1c(NS(=O)(=O)[C@@H](C)[C@H](C)c2ncc(F)c([C@@H]3COCCO3)n2)nnc1-c1cccc(OCC(O)(C(F)(F)F)C(F)(F)F)n1 (single isomer, unassigned) [Example 640.0] | 0.33 µM
COc1cccc(OC)c1-n1c(NS(=O)(=O)[C@@H]2CCCO[C@@H]2c2ncc(C)cn2)nnc1-c1cncc(C)c1 (single isomer, unassigned) [Example 643.0] | 0.15 µM
COc1cccc(OC)c1-n1c(NS(=O)(=O)[C@@H]2CCCO[C@@H]2c2ncc(C)cn2)nnc1-c1cncc(C)c1 (single isomer, unassigned) [Example 644.0] | 0.18 µM
COc1cccc(OC)c1-n1c(NS(=O)(=O)[C@@H]2CCCO[C@@H]2c2ncc(C)cn2)nnc1-c1cncc(C)c1 (single isomer, unassigned) [Example 645.0] | 0.06 µM
COc1cccc(OC)c1-n1c(NS(=O)(=O)[C@@H]2CCCO[C@@H]2c2ncc(C)cn2)nnc1-c1cncc(C)c1 (single isomer, unassigned) [Example 646.0] | 0.053 µM
COc1cccc(-c2nnc(NS(=O)(=O)[C@@H]3CCCO[C@@H]3c3ncc(C)cn3)n2-c2c(OC)cccc2OC)n1 (single isomer, unassigned) [Example 654.0] | 0.15 µM
COc1cccc(-c2nnc(NS(=O)(=O)[C@@H]3CCCO[C@@H]3c3ncc(C)cn3)n2-c2c(OC)cccc2OC)n1 (single isomer, unassigned) [Example 655.0] | 0.13 µM
COc1cccc(-c2nnc(NS(=O)(=O)[C@@H]3CCCO[C@@H]3c3ncc(C)cn3)n2-c2c(OC)cccc2OC)n1 (single isomer, unassigned) [Example 656.0] | 0.013 µM
COc1cccc(-c2nnc(NS(=O)(=O)[C@@H]3CCCO[C@@H]3c3ncc(C)cn3)n2-c2c(OC)cccc2OC)n1 (single isomer, unassigned) [Example 657.0] | 0.014 µM
